For one data set, the system named is Meljuso-wt (melanoma). In words: Cell count analysis Meljuso-wt. The format is cell-based, human. The protocol: (§1) FIG. 8 a-d: Effects of gliotoxin on cell counts of various human tumour cell lines in vitro. Cell counts of a) hepatocellular carcinoma cell lines HepG2, Huh7, SNU398, Hep3b, HeLa (cervix) and the cholangiocarcinoma cell line NEC as well as b) the pancreatic cancer cell line Panc-1 and the melanoma cell lines d) MelJuso, Meljuso-Bcl-2 (+) and 607B after 72 h treatment with 200 nM gliotoxin; c-d) Cell count dose range experiments with c) pancreatic carcinoma cell lines Panc-1 and MiaPaCa as well as melanoma cell lines MelJuso, 518A2 and 607B using 25, 50 100 and 200 nM gliotoxin for 24 h. All data are given relative to control ±standard deviation.
(§2) Tumour cells were seeded at a density of 10,000 cells/well in 24-well plates. 24 h after seeding, medium containing gliotoxin was added to yield desired concentrations of gliotoxin. At time points indicated, culture medium was removed by suction. Adherent cells were washed with DPBS (Cambrex, Verviers, Belgium) and incubated with trypsin (Gibco) at 37° C. Detached cells were transferred to test tubes containing Cellpack isotonic fluid (Sysmex Europe, Bornbarch, Germany) and counted with a Coulter Z1 electronic cell counter (Beckman Coulter, Bedford, UK).

The test system of data set [1] is B1 B-cells (LPS responder). The conditions noted are these: mice, single administration of 100 μg of gliotoxin; cited from earlier work.
Another data set deals with T1, Notch2 (Homo sapiens, UniProt Q04721).
T1 construct: endogenous in cells; host or cells: PBMCs from healthy donors, with or without TPA
T1 sequence (Q04721 1697-2471 limits assumed): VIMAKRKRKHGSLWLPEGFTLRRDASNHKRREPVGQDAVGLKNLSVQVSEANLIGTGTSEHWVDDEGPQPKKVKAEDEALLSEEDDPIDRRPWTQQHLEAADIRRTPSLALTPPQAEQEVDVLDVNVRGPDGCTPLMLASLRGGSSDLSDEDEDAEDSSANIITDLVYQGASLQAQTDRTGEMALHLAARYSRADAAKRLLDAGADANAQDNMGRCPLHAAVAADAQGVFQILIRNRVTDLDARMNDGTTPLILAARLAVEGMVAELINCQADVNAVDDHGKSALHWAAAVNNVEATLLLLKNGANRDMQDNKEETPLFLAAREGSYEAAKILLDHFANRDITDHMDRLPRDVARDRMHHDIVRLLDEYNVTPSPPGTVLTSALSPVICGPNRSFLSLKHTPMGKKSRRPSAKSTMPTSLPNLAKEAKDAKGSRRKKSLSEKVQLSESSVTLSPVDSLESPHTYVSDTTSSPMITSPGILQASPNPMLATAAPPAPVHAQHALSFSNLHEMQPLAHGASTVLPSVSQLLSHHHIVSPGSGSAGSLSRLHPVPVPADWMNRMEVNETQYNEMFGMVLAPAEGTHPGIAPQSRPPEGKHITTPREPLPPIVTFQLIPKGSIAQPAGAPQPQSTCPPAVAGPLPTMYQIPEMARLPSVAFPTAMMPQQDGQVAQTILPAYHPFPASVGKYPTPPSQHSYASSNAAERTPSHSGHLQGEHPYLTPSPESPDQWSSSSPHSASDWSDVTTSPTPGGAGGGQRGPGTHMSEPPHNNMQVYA
Description: Notch2 activity in PBMCs from healthy donors by EMSA. The note with it: TPA-stimulated PBMCs, 0.2 μM gliotoxin, 4 hours. The class given is cell-based. The procedure: FIG. 4: Gliotoxin induces apoptosis in unstimulated as well as in TPA-stimulated B-CLL cells within 4 hours. Normal PBMCs (peripheral blood mononuclear cells) from healthy donors show a markedly lower Notch2 activity. Although gliotoxin inhibits Notch2 also in normal, TPA-stimulated cells, the gliotoxin-caused apoptosis rate is markedly lower in normal cells as compared to B-CLL cells. Non-stimulated and TPA stimulated PBMC's from healthy donors (HD) are less sensitive to 0.2 μM Gliotoxin despite a basal Notch2 activity. PBMC's and CLL cells were incubated with 0.2 μM Gliotoxin with or without TPA for 4 hours and the Notch2 activity as well as the percentage of apoptotic cells were determined by EMSA and FACS analysis, respectively.
After 4 hours of gliotoxin treatment, massive signs of the starting apoptosis (AnnexinV+) could already be recognized in B-CLL cells. This effect was increased by TPA (a phorbol ester which stimulates the activation of lymphocytes).

The next data set concerns HCT-15. The conditions noted are these: cited from earlier work.
A further data set has as its system 518A2 (melanoma). In words: Cell count analysis 518A2. The format is cell-based, human. The procedure: as §1, §2
For another data set, the system named is RL-7. In words: Apoptosis FACS in leukaemia cell line RL-7. The format is cell-based. The note with it: RL-7, 0.2 μM gliotoxin, 24 h. The procedure: FIG. 7: (A) The apoptotic activity of gliotoxin on further B-CLL patient samples (CLL4-CLL8) is illustrated. The (non-Notch2-associated) leukaemia cell lines (or the leukaemia cell lines not characterised by ligand-independent Notch2 fragments) Jurkat (T-ALL), SH1 (hairy cell carcinoma), RL-7 and K562 (CML) are resistant to a treatment with 0.2 μM (corresponding to 60 ng/ml) of gliotoxin. Cells were incubated for 24 h+/−gliotoxin, and the percentage of apoptotic cells (probidium-iodide+/annexinV+) was determined by means of FACS analysis. In none of the 4 non-Notch2-associated cell lines indicated, the application of 0.2 μM of gliotoxin led to a significant induction of apoptosis within 24 hours. The cytotoxic effect of Gliotoxin correlates with the Notch2 activity in leukemias. (B) Corresponding EMSA showing the activity of Notch2 in B-CLL cells and in leukemic cell lines (Jurkat, SH1, RL7, and K562).

Another data set relates to Notch2 (N2^IC). In words: Nuclear Notch2 activity in B-CLL cells by EMSA (band shift assay). The format is cell-based, human. The conditions noted are these: B-CLL cells, 0.2 μM gliotoxin, 24 h. The protocol:
FIG. 3: Gliotoxin is a potent Notch2 trans-activation inhibitor in B-CLL cells. (A) EMSA showing the inhibition of DNA-bound Notch2IC complexes in the presence of 0.2 μg Gliotoxin. B-CLL samples (n=10) were cultured in the presence of 1 ng/ml TPA with or without 0.2 μM Gliotoxin for 24 hours. Nuclear extracts were subjected to EMSA using a oligonucleotide probe spanning a well defined CBF1/NotchIC binding site derived from the CD23a promoter. (B). Corresponding FACS analysis (plus 10 additional B-CLL samples) showing the downregulation of the Notch2 target gene CD23 as well as the induction of apoptosis of Gliotoxin treated B-CLL samples. Columnes represent the percentage of CD19^+CD23^+ (grey bars) and apoptotic cells (black bars: including early apoptotic cells single positive for AnnexinV, and late apoptotic cells double positive for AnnexinV and probidium iodide), respectively.
As drug screening model, a cell culture system was established which conserves the phenotype of freshly isolated B-CLL cells (3×10^6 B-CLL cells/ml RPMI medium+10% FCS, supplemented with 1 ng/ml of TPA). Notch2 activity in the cell nucleus is determined by means of EMSA (electrophoretic mobility shift assay) experiments, and the cell viability (Probidium iodide/annexinV) and CD23 expression (Notch2 target gene) is determined by means of FACS (flow cytometry) analyses, respectively. […]
For orientation: In EMSA bound probe runs differently from free probe, usually more slowly.

Data set [2] has as its system cultures from animal cells. The conditions noted are these: cited from earlier work.
Data set [3] has as its system U937 (macrophage cell line). The conditions noted are these: cited from earlier work.

The molecule `CN1C(=O)[C@]23CC4=CC=C[C@H](O)[C@H]4N2C(=O)[C@@]1(CO)SS3` [gliotoxin, [3R-(3α,5aβ,6β,10aα)]-2,3,5a,6-tetrahydro-6-hydroxy-3-(hydroxymethyl)-2-methyl-10H-3,10a-epi-dithiopyrazino[1,2-a]indol-1,4-dion] showed a response in the data set on Meljuso-wt (melanoma) (MelJuso (−BCL2), 0.2 μM (60 ng/ml)) of roughly 100%. The “cytotoxicity in dose range experiment (cell count)” value is recorded as “clear dose dependent cytotoxicity” in the data set with Meljuso-wt (melanoma) (Meljuso, 25, 50, 100 and 200 nM, 24 h); “clear dose dependent cytotoxicity” with 518A2 (melanoma) (518A2, 25, 50, 100 and 200 nM, 24 h). Besides, the “effect on cell count” value with Meljuso-wt (melanoma) (Meljuso-wt, 200 nM gliotoxin, 72 h) is on record as “very effective”; with 518A2 (melanoma) (518A2, 200 nM gliotoxin, 72 h), “very effective”. The “effect on B1 B-cells (LPS responder)” value in data set [1] is listed as “complete loss of B1 B-cells”. Further, the “physiologic Notch2 activity (EMSA)” value on Notch2 is “marked reduction”. The results for the “IC50 with regard to cell viability” value (in the data set with HCT-15; in data set [3]) were 0.039 mg/L and 0.014 mg/L, respectively. Moreover, in the data set with RL-7, the “induction of apoptosis (probidium-iodide+/annexinV+)” value was “resistant”. Moreover, the “transcriptional Notch2 activity (EMSA)” value in the data set on Notch2 (N2^IC) is given as “dramatic loss”. For the same molecule, the “concentration at which the effect changes towards necrosis” value in [2] is “more than 10 μM”. In addition, in data set [2], the “concentration for complete necrosis of the cell cultures” value is no less than 50 µM.

(Values after patent US7981878B2, “Tumor treatment with gliotoxin derivatives” (priority 2005, dated 2011).)
